{"source": "patent US20040127529A1", "about": "“Remedies for skin ulcer” (Fujisawa Pharmaceutical Co., Ltd., priority 1999, published 2004)", "system": "full-thickness wound in C57BL/KsJ db/db mice", "experiment": "db/db mouse full-thickness wound model", "format": "in vivo", "details": "for wound area reduction: 100 μl applied once daily for 18 days, day 18 following wound construction (vehicle 73%); for day from which wound area differs significantly (p<0.05) from the vehicle control group: once daily", "source_text": "Test Example 1 (db/db mouse full-thickness wound model)\nUsing 10-week-old male C57BL/KsJ db/db mice (db/db mice) and the corresponding control C57BL/KsJ +m/+m mice (+m/+m mice), the back hair coat was removed with a depilatory cream. After 3 days, using ophthalmological scissors, the skin in a circular area with a diameter of about 1.5 cm at the dorsal midline was removed to construct a full-thickness wound. Thereafter, the full-thickness wound area was covered with a poly-urethane film agent. During 18 consecutive days beginning the day of wound construction, 100 μl of the investigational compound solution or distilled water (vehicle) was taken in a syringe and applied through the polyurethane film once daily. The polyurethane film agent was changed every day and after disinfection with 3% H2O2, the drug was applied in the same manner as above. The wound area was measured by the tracing method under light anesthesia every other day as a rule. With the initial wound area at the beginning of drug application being taken as 100%, the fractional area at each day of measurement was calculated."}
{"smiles": "O=C(O)COc1cccc2c1CC[C@](O)(COC(=O)N(c1ccccc1)c1ccccc1)C2", "note": "[test compound, [[(2R)-5-(carboxymethoxy)-2-hydroxy-1,2,3,4-tetrahydronaphth-2-yl]methyl]N,N-diphenylcarbamate]", "values": [{"measurement": "early expansion of wound area", "setting": "0.01% and 0.1% solutions", "result": "not observed"}, {"measurement": "overall conclusion on wound healing", "setting": "0.01% and 0.1% solutions", "result": "wound healing-promoting action"}, {"measurement": "wound area reduction", "setting": "0.01% solution", "result": 90, "unit": "%"}, {"measurement": "day from which wound area differs significantly (p<0.05) from the vehicle control group", "setting": "0.01% solution", "result": "≥ 7", "unit": "days"}, {"measurement": "wound area reduction", "setting": "0.1% solution", "result": 93, "unit": "%"}, {"measurement": "day from which wound area differs significantly (p<0.05) from the vehicle control group", "setting": "0.1% solution", "result": "≥ 4", "unit": "days"}]}
